Assay results from patent US11261201B2 (priority 2018, dated 2022).
In brackets after ≈: the same amount, converted by molar mass. Structures can show the parent of a compound that is named as a salt. Where two headings read alike, the source gives them in different places.

How the values were obtained:
A. baumannii = assay: Gram negative MIC protocol (OD600, LB, 24 h); conditions: Acinetobacter baumannii
Procedure: (§1) Overnight bacterial cultures were grown in LB with no added antibiotics at 37° C. with shaking. A 1:1000 dilution of these cultures into LB was exposed to concentration gradients of compounds in 96-well plates (100 μL per well assay volume). Resulting plates were incubated at 37° C. for 24 h without shaking, and OD600 was measured at the end of the incubation. MICs were determined as the lowest concentrations at which OD600 remained at baseline.

E. coli = assay: Gram negative MIC protocol (OD600, LB, 24 h); conditions: Escherichia coli
Procedure: as §1

H37RvMA = assay: Tuberculosis Alamar Blue/Resazurin assay (MIC); type: cell-based
E. coli K-12 = assay: Resistance development on LB-agar plates, combination therapy; conditions: B1 in combination with anti-LeuS Tavaborole, adjusted for dose equivalence; 10^8 cells plated, 37° C., 24 hours; multiple independent experiments (FIG. 1)
Procedure: Experimental details: Cultures of E. coli K-12 were started from single colonies on LB-agar plates and were grown in LB for 36 hours with shaking at 37° C. Following that, 10^8 cells were plated on LB-agar plates containing B1 or Tavaborole alone or in combination adjusted for dose equivalence and incubated at 37° C. for 24 hours.

[1] = read-out: MIC A. baumannii LB Media
[2] = read-out: MIC E. coli delta-TolC LB Media, E. coli delta-TolC, LB media, OD600
[3] = read-out: MIC WT E. coli LB Media, WT E. coli, LB media, OD600
[4] = read-out: MIC A. baumannii LB Media, A. baumannii, LB media, 24 h, OD600
[5] = Mycobacterium tuberculosis, H37RV, WT H37Rv MTB; read-out: WT H37Rv MTB Activity

| Compound | MIC (A. baumannii; [1]) | MIC (E. coli; [2]) | MIC (E. coli; [3]) | MIC (H37RvMA; Mycobacterium tuberculosis, H37RV, read-out: WT H37Rv MTB Activity) | development of resistance (E. coli K-12) | MIC (H37RvMA; Mycobacterium tuberculosis, H37RV; read-out: WT H37Rv MTB Activity) | MIC (A. baumannii; [4]) | MIC (E. coli; read-out: MIC E. coli delta-TolC LB Media, E. coli delta-TolC strain, LB media, 24 h, OD600) | MIC (E. coli; read-out: MIC WT E. coli LB Media, wild-type E. coli, LB media, 24 h, OD600) | MIC (H37RvMA; [5]) |
| --- | --- | --- | --- | --- | --- | --- | --- | --- | --- | --- |
| C1=C(CCNCc2ccccc2)CCCC1 [B1, N-benzyl-2-(cyclohex-1-en-1-yl)ethan-1-amine] | 150 µM (≈ 32.3 µg/mL) | 46 µM (≈ 9.91 µg/mL) | 60 µM (≈ 12.9 µg/mL) | > 150 µM | did not develop resistance |  |  |  |  |  |
| C1=CCC(CCNCc2ccccc2)CC1 (stereo not drawn) [B156, N-benzyl-2-(cyclohex-3-enyl)ethanamine hydrochloride] | 150 µM | 150 µM | 150 µM |  |  | > 150 µM |  |  |  |  |
| CC(CC1CCCCC1)NCc1ccccc1OCc1ccccc1Br (stereo not drawn) [B381] |  |  |  |  |  |  | 55 µM (≈ 22.9 µg/mL) | 4 µM (≈ 1.67 µg/mL) | 55 µM (≈ 22.9 µg/mL) | 20.2 µM (≈ 8.41 µg/mL) |
| CC(CC1CCCCC1)NCc1ccccc1OCC1CNC(=O)C1 (stereo not drawn) [B403] |  | 7 µM (≈ 2.41 µg/mL) | > 150 µM |  |  |  | > 150 µM |  |  | > 150 µM |
| CNc1cccc(CNCCC2CCCCC2)c1 [B406, 3-(((2-cyclohexylethyl)amino)methyl)-N-methylaniline] |  | > 150 µM | > 150 µM |  |  |  | > 150 µM |  |  | 150 µM (≈ 37 µg/mL) |
| CC1CCc2ccccc2N1CCNCc1ccccc1 (stereo not drawn) [B145] |  | > 150 µM | > 150 µM |  |  |  | > 150 µM |  |  | 91 µM (≈ 25.5 µg/mL) |
| CC(CC1CC1)NCc1ccccc1 (stereo not drawn) [B34] |  | > 150 µM | > 150 µM |  |  |  | > 150 µM |  |  | > 150 µM |
| CC(CC1CCCCC1)NCc1cccc2ccn(CCO)c12 (stereo not drawn) [B442, 2-(7-(((1-cyclohexylpropan-2-yl)amino)methyl)-1H-indol-1-yl)ethan-1-ol hydrochloride] |  | 150 µM | > 150 µM |  |  |  | > 150 µM |  |  | 150 µM |
